According to PubChem BioAssay (NCI):
Values joined by “and” are separate entries in the source; they are usually repeats but may differ in a detail not shown here. Equal entries are not always repeated.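 Where inhibition never reached the appropriate level, the endpoint shown equals the highest concentration tested. Otherwise, values were interpolated linearly from a five-concentration, 48-hour dose response in 96-well plates. GI50 is the concentration that inhibits growth by half. TGI is the concentration that stops growth completely.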

Assays:
Experiment in all cases: DTP human tumour cell line panel, 48 h
[1] = tested on: ACHN renal
[2] = tested on: CAKI-1 renal
[3] = tested on: CCRF-CEM leukemia
[4] = tested on: NCI-H23 lung
[5] = tested on: OVCAR-5 ovarian
[6] = tested on: SF-295 CNS
[7] = tested on: SK-MEL-5 melanoma
[8] = tested on: SK-OV-3 ovarian
[9] = tested on: UACC-62 melanoma
[10] = tested on: HOP-92 NSCLC

Structure (SMILES)	TGI [1]	TGI [2] [µM]	GI50 [3]	TGI [3] [µM]	GI50 [4] [µM]	TGI [4] [µM]	TGI [5] [µM]	TGI [6] [µM]	GI50 [7]	TGI [7] [µM]	TGI [8] [µM]	TGI [9] [µM]	GI50 [1]	GI50 [2] [µM]	GI50 [10] [nM]	TGI [10] [µM]	GI50 [5] [nM]	GI50 [6]	GI50 [9]	GI50 [8]
O=C1OCc2c1cc1ccc(O)c(OC3OC(CO)C(O)C(O)C3O)c1c2-c1ccc2c(c1)OCO2 (stereo unspecified)	> 100 µM	> 100	34900 nM	> 100	47.5	> 100	> 100	> 100	26200 nM	74.9	> 100	> 100								
O=C1/C(=C/c2ccc(Cl)cc2Cl)N=C(c2ccccc2)N1Cc1ccco1	28 µM	50.6	3580 nM	7.6	26.2	81.6	> 100	45.9	15800 nM	80.9		41.6	11800 nM	30.2	20700	47.4	34500	22200 nM	18100 nM	
OCCC1(O)CCC(O)CC1 (stereo unspecified)				> 100		> 100	> 100	> 100		> 100	> 100	> 100				> 100				
CC[CH2][Pb]([CH2]CC)([CH2]CC)[O]C(=O)C(F)(F)F	0.458 µM	0.501	90.6 nM	0.775			0.636	0.434	127 nM	0.264	1.09	0.3	149 nM	0.16	29.1	0.223	180	182 nM	116 nM	275 nM
COc1cc2c3c(n(C)c(=O)c2cc1OC)-c1cc2c(cc1/C3=C\CCCN1C(=O)c3ccccc3C1=O)OCO2	> 40 µM	> 40			> 40	> 40	> 40	> 40	21700 nM	> 40	> 40		8670 nM	5.44	2120	13.4	> 40000	3610 nM		> 40000 nM
NCC(=O)NS(=O)(=O)OC[C@H]1O[C@@H](n2cnc3c(N)ncnc32)[C@H](O)[C@@H]1O	8.37 µM		3710 nM	> 100	2.56	7.04	4.1	2.56	1850 nM	3.34	7.94	3.78	2890 nM		2970	6.78	750	861 nM	1850 nM	2870 nM
CC(C)CC(=O)[O-].CC(C)CC(=O)[O-].N.N.N.N.[Co+3].[O-][Cl+3]([O-])([O-])[O-]	> 100 µM		> 100000 nM	> 100	> 100	> 100	> 100	> 100	> 100000 nM	> 100	> 100	> 100	> 100000 nM		> 100000	> 100	> 100000	> 100000 nM	> 100000 nM	> 100000 nM
CCCCCCCCCCCCCC(=O)OC1CC(=O)OC1CO (stereo unspecified)	> 100 µM	> 100		74.4			> 100	45.5		> 100	> 100	51.1				43.1				
Cc1ccc(-c2c3c([nH]c(=O)c2C#N)-c2cc(F)ccc2OC3)cc1	> 100 µM	> 100	1190 nM	7.25			> 100	76.6	41800 nM	> 100	> 100	> 100	> 100000 nM	82.1	> 100000	> 100	> 100000	23900 nM	61200 nM	97600 nM
CC12CC[C@@H](C(C)(C)O)C1[C@@H](O)CC1(C)C2CCC2[C@@]3(C)CC[C@H](O)C(C)(C)C3C(O)C[C@]21C (stereo partly specified)	29.1 µM			27.3		39.2	31.2	37		21.3		34.7				37.5				
CCCCNC1=C(C(=O)OCC)C(=O)CO1	> 100 µM	> 100		> 100		> 100	> 100	> 100		> 100	> 100	> 100								
COc1ccc2c(c1)c(-c1nc(-c3cn(C)c4ncccc34)cs1)cn2CCCN1CCCCC1	3.06 µM		2050 nM	4.04	1.81	3.49	3.25	3.18	1790 nM	3.25	3.53	3.2	1690 nM		1670	3.24	1640	1710 nM	1760 nM	1830 nM
COc1ccccc1C1C(C(=O)Nc2ccccc2)=C(C)NC(C)=C1C(=O)Nc1ccccc1	> 100 µM	> 100				> 100	> 100	> 100		> 100	> 100	> 100				> 100				
COc1cc(/C=C/c2cc(/C=C/c3ccc(O)c(OC)c3)n(-c3ccccc3)n2)ccc1O		7.26	127 nM	> 100	0.197	2	4.51		252 nM	1.36	1.27			0.33	452	4.25	1270			334 nM
COc1cc(OC)cc(-c2ccc(-c3ccc(C(=N)N)o3)o2)c1	4.22 µM	16.1	2720 nM	7.72	9.25	22.3	5.25	4.25	1950 nM	3.39	28.5	3.98	2050 nM	4.33			2340	2060 nM	1960 nM	14900 nM
CSc1cc(N=Nc2nc3ccccc3s2)c2ccccc2c1O	13.1 µM	20.3			10.5	27.9	28.7	27.6	6430 nM	13.3	28.7	11.9	6570 nM	10.1	10100	> 50	16100	11500 nM	5410 nM	10700 nM
O=C(CI)NC1Oc2ccccc2-c2oc(=O)c(-c3ccccc3)cc21 (stereo unspecified)		3.05	305 nM	> 100				3.37	3260 nM	11.4	3.48	3.25		1.67				1770 nM	1730 nM	1830 nM

Structure (SMILES)	TGI [1]	TGI [2] [µM]	GI50 [3]	TGI [3] [µM]	GI50 [4] [µM]	TGI [4] [µM]	TGI [5] [µM]	TGI [6] [µM]	GI50 [7]	TGI [7] [µM]	TGI [8] [µM]	TGI [9] [µM]	GI50 [1]	GI50 [2] [µM]	GI50 [10] [nM]	TGI [10] [µM]	GI50 [5] [nM]	GI50 [6]	GI50 [9]	GI50 [8]
Cc1ccc(S(=O)(=O)C(CC(=O)N2CCCC2)C(=O)c2ccccc2)cc1 (stereo unspecified)	> 100 µM	> 100		62.5		> 100	> 100	> 100		> 100		> 100				> 100				
O=C1/C(=C/c2ccc(Br)cc2)C=C(c2ccccc2)N1CCc1ccccc1	11 µM	7.6	7760 nM	> 100	1.69	14.6	40.2	1.59	3890 nM	20.8	5		650 nM	1.23	320	2.63	4280	332 nM		1550 nM
N#CSCC1CC(O)(c2ccccc2)C(c2ccccc2)C(c2ccc(Cl)cc2)O1 (stereo unspecified)	3.02 µM	4.14			1.57	3.03	3.86	4.22	1630 nM	2.98	6.21	2.81	1600 nM	1.67			2130	1750 nM	1410 nM	2680 nM
N#CC1(Cc2ccc(N)cc2)c2ccccc2C=CN1C(=O)c1ccccc1 (stereo unspecified)	> 100 µM			> 100		> 100	> 100	> 100		47.2	> 100	> 100				> 100				
COc1cccc(-c2cc(=O)c3cc(N(C)C)ccc3[nH]2)c1	> 100 µM and 51.9 µM		13.5 nM and 5.24 nM				> 100		12.5 nM and 3.56 nM			> 100	89.2 nM and 11 nM					16.9 nM and 29.6 nM and 4.85 nM	16.3 nM and 3.63 nM	25 nM and 3.59 nM
O=C(N/N=C/c1ccccc1O)c1cccc([N+](=O)[O-])c1	> 100 µM			> 100		> 95.5	> 100	68.3		> 61.3	> 78.3	> 70.8								
O=C1C=CC(=Nc2ccc3c(c2)C(Br)c2ccccc2-3)O1 (stereo unspecified)	> 100 µM			> 100		> 100		> 100			> 100	> 100								
N#CC(C(=N/O)/C(=N/O)C(C#N)c1ccc(Cl)cc1)c1ccc(Cl)cc1 (stereo unspecified)	> 100 µM	> 100				> 100	> 100	> 100			> 100	> 100				> 100				
CCOC(=O)NC(=O)c1cn(C2OC(COC(=O)CCCCCCCCC(=O)OCC3OC(n4cc(C(=O)NC(=O)OCC)c(=O)[nH]c4=O)C(O)C3O)C(O)C2O)c(=O)[nH]c1=O (stereo unspecified)	> 100 µM	> 100		> 100		> 100	> 100	> 100		> 100		> 100								
CCN(CC)c1c(C(=O)/C=C/c2ccccc2)c(-c2ccccc2)nn(C)c1=O	> 100 µM	> 100					> 100	> 100		> 100	> 100	> 100				> 100				
C=C(CN1CCc2ccccc2C1)c1ccc(C(=O)Nc2cnccn2)cc1	> 100 µM	> 100	5420 nM	> 100	18.4	> 100	> 100	73	20800 nM	61	84.5	> 100	30800 nM	7.77			> 100000	19100 nM	44000 nM	24300 nM
CCCCCCCCCCCC(=O)CC(=O)c1c(O)cccc1O	35.2 µM			> 100		41.9	36.4	34.8		35.6	95.5	90.1				39				
CC1=C(CCCNS(C)(=O)=O)C2=C(C)C3(CC3)[C@@](C)(O)C(=O)C2=C1	7.58 µM		44100 nM	> 100	0.269	1.83	7.62	19.9	492 nM	1.98	1.11	3.45	2140 nM		303	1.41	654	634 nM	1470 nM	304 nM
COc1ccc2cc1Oc1ccc(cc1)CC1c3cc(c(OC)cc3CCN1C)Oc1c3c(cc4c1C(C2)N(C)CC4)OCO3 (stereo unspecified)	13.9 µM			31.7		31.9	32.4	21.9		25.1		30.1								
CCCCN(CCCC)C(=O)C(=O)C(C#N)c1ccc(C)cc1 (stereo unspecified)	> 100 µM	> 100		> 100		> 100	> 100	> 100		> 100		> 100				> 100				
Nc1ccn(C2O[C@H](CO)[C@@H](O)[C@@H]2O)c(=O)n1 (stereo partly specified)	> 100 µM	> 100			30.4	> 100	> 100	> 100		> 100	> 100	> 100	42900 nM		33800	> 100				
Cc1ccc(CS/C(=C\c2ccc([N+](=O)[O-])cc2)C(=O)c2ccc(F)cc2)cc1	3.1 µM		2230 nM	> 100	4.78	41	9.01	6.48	2400 nM	5.98	> 100	8.77	1730 nM		14100	41.3	2600	2250 nM	2460 nM	17700 nM
